This is an account of results in patent US20030186424A1, “Reagents and methods for identifying and modulating expression of genes regulated by CDK inhibitors” (priority 2001, published 2003).

In one data set the test system is CRD1 domain of p300. Put plainly: CRD1 dependent stimulation of transcription (Gal4 p300 CRD1+ luciferase reporter). The conditions noted are these: treatment of cells with the compound; data not shown. The format is cell-based, human. Here is the method:
Calcium phosphate transfections of U-2 OS cells were performed substantially as disclosed in Webster & Perkins (1999, Mol. Cell. Biol. 19: 3485-3495). Briefly, transfections were performed in 6 cm dishes using 2 μg of reporter plasmid, 1.6 μg of RSV p21 or RSV ADH control plasmid and 5 ng of Gal4 expression plasmid (except where indicated in the figure legend). Cells were harvested approximately 40 hours after transfection. Lysates were prepared using passive lysis buffer (Promega) and luciferase assays were performed according to manufacturer's instructions (Promega). All experiments were performed separately, a minimum of three times before calculating means and standard errors as shown in the Figures. Relative luciferase levels were calculated by referring to the level of activity seen with the Gal4 DNA-binding domain (amino acids 1-147) not fused to a heterologous activator, except when specifically referred to.
Wild type p21 and the two mutants were cotransfected with Gal4 p300^CRD+ (192-1044) and Gal4 E1B luciferase into U-2 OS cells. Both mutants stimulated transcriptional activity to the same extent as the wild type protein (FIG. 8B), consistent with a Cyclin/CDK independent role for p21 regulation of CRD1. […]

Another data set deals with TBP + TFIIB complex (UniProt P20226;Q00403 P20226:1-339,Q00403:1-316). Put plainly: EMSA; no complex seen; 30 C, 4 mM MgCl2, 55 mM KCl; exact probe span not stated. The conditions noted are these: tags: gift from Stefan Roberts, University of Manchester; label: 32P. An excerpt:
The sequence of the TATA box and surrounding sequences was known in the art to influence binding of basal transcription factors (Lieberman et al., 1997, Mol. Cell. Biol. 17: 6624-6632). Since the Bax TATA sequence differs considerably from AdML, these constructs were used to determine whether the observed structural differences would be associated with differential binding of the core transcription factors TBP (TATA binding protein) and TFIIB. In these experiments, purified recombinant TBP and TFIIB were therefore incubated with ³²P labeled probes containing the AdML and Bax TATA boxes and analyzed by electrophoretic mobility shift assay (EMSA), performed as follows. ³²P labeled probe DNA was incubated for 1 hr at 30° C. with ˜1 ng purified recombinant TBP, ˜2 ng purified recombinant TFIIB (both proteins gifts from Dr Stefan Roberts, University of Manchester), 5 μg BSA, 250 ng poly(dG.dC) competitor and 12 μL buffer (having a formula of 10 mM Hepes pH7.9, 0.2 mM EDTA, 55 mM KCl, 4 mM MgCl₂, 5 mM ammonium sulphate, 8% v/v glycerol, 2% v/v polyethylene glycol, 5 mM β-mercaptoethanol, and 0.2 mM PMSF). Samples were then resolved using a 4.8% acrylamide gel (in 0.5×TB buffer). The gel was then dried and exposed to film.
(In EMSA bound probe runs differently from free probe, usually more slowly.)

Sequence of TBP + TFIIB complex (P20226 whole entry, chain 1 of 2): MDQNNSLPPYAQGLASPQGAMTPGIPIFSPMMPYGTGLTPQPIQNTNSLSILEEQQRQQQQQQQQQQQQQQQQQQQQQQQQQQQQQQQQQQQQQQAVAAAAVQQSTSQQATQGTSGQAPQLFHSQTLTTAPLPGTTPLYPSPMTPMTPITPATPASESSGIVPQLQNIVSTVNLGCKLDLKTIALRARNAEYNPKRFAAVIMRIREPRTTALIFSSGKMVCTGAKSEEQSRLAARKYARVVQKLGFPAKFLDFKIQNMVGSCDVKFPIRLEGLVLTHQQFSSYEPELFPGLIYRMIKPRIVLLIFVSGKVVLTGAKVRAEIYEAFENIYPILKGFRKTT
Sequence of TBP + TFIIB complex (Q00403 whole entry, chain 2 of 2): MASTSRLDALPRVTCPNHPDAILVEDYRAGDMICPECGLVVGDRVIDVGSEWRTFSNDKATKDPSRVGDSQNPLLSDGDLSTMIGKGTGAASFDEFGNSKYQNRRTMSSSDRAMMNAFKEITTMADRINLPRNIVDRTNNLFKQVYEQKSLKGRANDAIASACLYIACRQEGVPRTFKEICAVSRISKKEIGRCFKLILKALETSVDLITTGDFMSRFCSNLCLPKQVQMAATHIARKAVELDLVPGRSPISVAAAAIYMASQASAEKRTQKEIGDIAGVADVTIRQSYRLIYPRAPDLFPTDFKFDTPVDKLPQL

As to `CC[C@H](CO)Nc1nc(NCc2ccccc2)c2ncn(C(C)C)c2n1` [roscovitine], the “CRD1 dependent stimulation of transcription” value with CRD1 domain of p300 is listed as “does not result in CRD1 dependent stimulation of transcription”.

On to `NC(Cn1ccc(=O)c(O)c1)C(=O)O` (stereo not drawn) [mimosine], for which, in the data set with CRD1 domain of p300, the “CRD1 dependent stimulation of transcription” value was “does not result in CRD1 dependent stimulation of transcription”.

B1: Bax TATA box core promoter probe (dsDNA)
DNA 1: ACTCAGTTTTTAGTCATCTATAACGTCCTGCCTGGAAGCATGCTATTTTGGGCCTCTGAGCTT
DNA 2: AAGCTCAGAGGCCCAAAATAGCATGCTTCCAGGCAGGACGTTATAGATGACTAAAAACTGAGT
Take B1: the binding result with TBP + TFIIB complex is reported as “no binding”.
